Measured values from ChEMBL document CHEMBL3272199, “Beta-lactam antibiotics with N-oxide side chains. 1. Quinoxaline N-oxides” (1976).
In brackets after ≈: the same amount, converted by molar mass. Activity calls are given as the source filed them. The rule behind the calls is not given here.

What was measured:
[1] = tested on: Staphylococcus aureus; test: Antibacterial activity against Staphylococcus aureus assessed as growth inhibition incubated for 24 hrs using acid chloride; assay type: functional
[2] = tested on: Salmonella; test: Antibacterial activity against Salmonella schottmuelleri assessed as growth inhibition incubated for 24 hrs using acid chloride; assay type: functional
[3] = tested on: Proteus mirabilis; test: Antimicrobial activity against Proteus mirabilis infected in mouse assessed as growth inhibition at 250 mg/kg; assay type: functional, organism-based; design: dose 250 mg/kg
[4] = tested on: Pseudomonas aeruginosa; test: Antimicrobial activity against Pseudomonas aeruginosa infected in mouse assessed as growth inhibition at 250 mg/kg; assay type: functional, organism-based; design: dose 250 mg/kg
[5] = tested on: Staphylococcus aureus; test: Antibacterial activity against Staphylococcus aureus assessed as growth inhibition incubated for 24 hrs using mixed anhydride; assay type: functional
[6] = tested on: Salmonella; test: Antibacterial activity against Salmonella schottmuelleri assessed as growth inhibition incubated for 24 hrs using mixed anhydride; assay type: functional
[7] = tested on: Staphylococcus aureus; test: Antibacterial activity against Staphylococcus aureus assessed as zone of inhibition at 100 ug/ml incubated for 24 hrs; assay type: functional, organism-based

Row | SMILES | MIC [1] | MIC [2] | MIC [5] | MIC [6] | Activity [3] | Activity [4] | inhibition zone (IZ) [7]
1 | CC1(C)S[C@@H]2[C@H](NC(=O)CCCc3c(-c4ccccc4)[n+]([O-])c4ccccc4[n+]3[O-])C(=O)N2[C@H]1C(=O)[O-].[Na+] | – | – | 10 µg/mL | > 1000 µg/mL | inactive | inactive | –
2 | CCOC(=O)c1c(C(=O)N[C@@H]2C(=O)N3[C@@H]2SC(C)(C)[C@@H]3C(=O)[O-])nc2ccccc2[n+]1[O-].[Na+] | 100 µg/mL | 1000 µg/mL | – | – | inactive | inactive | Active
3 | Cc1c(CC(=O)N[C@@H]2C(=O)N3C(C(=O)O)=C(C[O-])CS[C@H]23)[n+]([O-])c2ccccc2[n+]1[O-].[Na+] | – | – | 1000 µg/mL | > 1000 µg/mL | inactive | inactive | Active
4 | Cc1c(C)[n+]([O-])c2cc(C(=O)N[C@@H]3C(=O)N4[C@@H]3SC(C)(C)[C@@H]4C(=O)[O-])ccc2[n+]1[O-].[Na+] | – | – | 100 µg/mL | > 1000 µg/mL | inactive | inactive | –
5 | CC1(C)S[C@@H]2[C@H](NC(=O)c3c(-c4ccccc4)[n+]([O-])c4ccccc4[n+]3[O-])C(=O)N2[C@H]1C(=O)[O-].[Na+] | 100 µg/mL | 1000 µg/mL | – | – | inactive | inactive | Active

The next lines start with results.

Row | MIC [1] | MIC [2] | MIC [5] | MIC [6] | SMILES | Activity [3] | Activity [4] | inhibition zone (IZ) [7]
6 | 100 µg/mL | 1000 µg/mL | – | – | Cc1c(C(=O)N[C@@H]2C(=O)N3[C@@H]2SC(C)(C)[C@@H]3C(=O)[O-])[n+]([O-])c2ccccc2[n+]1[O-].[Na+] | inactive | inactive | –
7 | – | – | 100 µg/mL | 1000 µg/mL | Cc1c(CC(=O)N[C@@H]2C(=O)N3[C@@H]2SC(C)(C)[C@@H]3C(=O)[O-])[n+]([O-])c2ccccc2[n+]1[O-].[Na+] | inactive | inactive | –
8 | – | – | 10 µg/mL | 1000 µg/mL | CCOC(=O)c1c(CCC(=O)N[C@@H]2C(=O)N3[C@@H]2SC(C)(C)[C@@H]3C(=O)[O-])[n+]([O-])c2ccccc2[n+]1[O-].[Na+] | inactive | inactive | –
9 | 10 µg/mL (≈ 29.9 µM) | 10 µg/mL (≈ 29.9 µM) | 10 µg/mL (≈ 29.9 µM) | 10 µg/mL (≈ 29.9 µM) | CC1(C)S[C@@H]2[C@H](NC(=O)Cc3ccccc3)C(=O)N2[C@H]1C(=O)O [PENICILLIN G] | – | – | –
